{"source": "patent US7419680B2", "about": "“Calcium phosphate-based materials containing zinc, magnesium, fluoride and carbonate” (New York University, priority 2003, dated 2008)", "origin": "cited, not measured here", "details": "earlier studies", "data": [{"substance": "b-alanyl-L-histadanato zinc", "values": [{"measurement": "bone density / bone loss in vivo", "value": "effective in increasing bone density or in preventing bone loss in vivo"}]}]}
